Reference: patent publication US20210137935A1, “CORTICOTROPIN RELEASING FACTOR RECEPTOR ANTAGONISTS” (Spruce Biosciences, Inc., priority 2017, published 2021)
Converted amounts (≈) assume the structure as drawn.

What was measured:
Androstenedione = assay: Phase 2 study in adults with classic CAH: Androstenedione; assay type: in vivo, human; conditions: patients with classic CAH
Text: (§1) Cohort A of the Phase 2 Study includes a 6-week, multiple-dose, dose escalation study of Compound 1 for the treatment of adults with classic CAH. After screening, eligible patients will be enrolled into a 6-week treatment period followed by a 4-week washout/safety follow-up period.
(§2) This cohort will be conducted in approximately 9 patients, who will receive Compound 1 daily for up to 6 weeks. Compound 1 will be administered as an oral daily dose. Patients will undergo titration of Compound 1 through three escalating dosage strengths at 2-week intervals. Patients will have overnight PK/PD assessments performed at baseline, which include an pre-dose overnight assessment and a post-dose overnight assessment for PK/PD following administration of the first dose. At the end of each 2-week dosing period, patients will return for single overnight visits for steady-state PK/PD assessments. A follow-up outpatient visit will occur 30 days after their last dose. Upon completion of the initial cohort (Cohort A), the study will proceed to a multiple ascending dose (MAD) design with up to 3 sequential cohorts (Cohorts B, C, and D) to further evaluate the safety, PK, and PD of various SPR001 dosing regimens and to identify an optimal dose regimen. Each cohort will undergo a 2-week run-in period, a 2-week treatment period, and a 30-day washout and safety follow-up period. During the run-in period, which will occur during screening, subjects will document in a paper diary each dose of glucocorticoid medication taken, the time of each meal, and the time they went to bed and woke up each day, to ensure compliance with background glucocorticoid regimens and the stability of their daily routine.
(§3) • 3. To explore the dose(s) of Compound 1 that cause pharmacodynamics changes in plasma concentrations of ACTH, androstenedione, and testosterone, as measured by the absolute and percent change from baseline by dose. • 4. To determine pharmacokinetics of Compound 1 in subjects with CAH. • 5. To explore potential relationships between pharmacodynamics and pharmacokinetics. […]

[1] = Study 1: single-escalating oral dose pharmacokinetics in healthy adult subjects; assay type: in vivo, human; conditions: for Cmax / AUC0-tlast / AUC0-∞ / CL/F / t1/2: geometric mean
Procedure: (§4) Study 1 was the first-in-human study that investigated the safety, tolerability, and PK of single-escalating doses of Compound 1, given orally, to healthy adult subjects. […] The data from this study were used for the selection of doses for Study 2.
In Study 1, Compound 1 was administered to healthy adult subjects as a single PO dose of 2, 10, 50, 150, 400, or 800 mg in the fed state and 150 mg in the fasted state. Absorption occurred moderately late, achieving peak Cmax between 4 to 6 hours following dosing in the fed state.
When Compound 1 was given in the fed state, median time to reach maximum plasma concentration (Tmax) occurred between 4 and 6 hours.
As part of this single-dose escalation study, a food effect PK investigation was performed to examine Compound 1 exposures in both the fed and fasted states at the 150-mg dose level. A total of 6 subjects were administered 150 mg Compound 1 in each of these 2 dosing groups. Of these 6 subjects, 4 subjects received Compound 1 at the same dose in both fed and fasted states. […] Table 6 provides a summary of the PK parameters at the 150-mg dose level under both fed and fasted state conditions.
PK parameters AUC0-∞ and Cmax were analyzed separately for dose proportionality for Compound 1 from 50 to 800 mg when administered in the fed state. […] Dose proportionality across administered doses in the fed state could not be concluded on the basis of AUC0-∞ or Cmax.

[2] = Phase 1 safety and tolerability (Study 1 and Study 2); assay type: in vivo, human; conditions: healthy subjects
Text: as §4
(§5) The 2-part multiple-dose study, Study 2, determined the safety and tolerability of repeated daily doses of Compound 1 and investigated the effects on biomarkers of relevance for the treatment of alcohol dependence.
The safety of Compound 1 was evaluated in 2 Phase 1 studies in healthy adult volunteers (Study 1 and Study 2). In both studies, adverse events (AEs), clinical laboratory tests, vital signs (supine blood pressure and pulse rate), and electrocardiograms (ECGs) were evaluated. Overall, in Study 1, Compound 1 was well-tolerated.

ACTH = assay: Phase 2 study in adults with classic CAH: ACTH; assay type: in vivo, human; conditions: patients with classic CAH
Text: as §1, §2, §3

[3] = Phase 2 study in adults with classic CAH: safety; assay type: in vivo, human; conditions: patients with CAH, 5-fold range of doses
Text: as §1
as §2, with “Each cohort will undergo a 2-week run-in period, a 2-week treatment period, and a 30-day washout and safety follow-up period. During the run-in period, which will occur during screening, subjects will document in a paper diary each dose of glucocorticoid medication taken, the time of each meal, and the time they went to bed and woke up each day, to ensure compliance with background glucocorticoid regimens and the stability of their daily routine.” left out
• 1. […] To assess the efficacy of Compound 1 in subjects with classic CAH as measured by percent and absolute change in 17-OHP compared to baseline. […]

17-OHP = assay: Phase 2 study in adults with classic CAH: 17-OHP; assay type: in vivo, human; conditions: patients with classic CAH
Text: as §1, §2
• 1. To evaluate the safety of Compound 1 in subjects with CAH. • 2. To assess the efficacy of Compound 1 in subjects with classic CAH as measured by percent and absolute change in 17-OHP compared to baseline.
This allows for steroid taper. […] 50% of subjects were within the guideline range (1200 ng/dL) after treatment.

[4] = Study 2 Part A: multiple-dose (14 days) pharmacokinetics in healthy adult volunteers; assay type: in vivo, human; conditions: for Cmax: fed; for Effective t1/2: half-life calculated by accumulation ratio; for Tmax: median; for WT-norm Claa/F: weight normalized
Procedure: as §5
PK were also evaluated in the multiple-dose, dose-escalation study, Study 2. In Part A of the study, subjects were divided into 3 cohorts and received 50, 150, or 200 mg Compound 1 or placebo for 14 consecutive days (at least 6 subjects received Compound 1 and 2 subjects received placebo in each cohort). […] All dosing occurred in the fed state. An assessment of diurnal cortisol levels, plus when under conditions of glucose clamp, were also carried out both prior to and during the dosing period.
Consistent with the single-dose study (Study 1), concentrations appeared to decline in a bi-exponential manner, characterized by a rapid decrease within the first 24 hours. […] The Tmax appeared to be consistent across doses. Overall half-lives, weight normalized CL/F and V/F were consistent for 150 and 200 mg. However, the values for these latter 2 parameters were almost doubled at the 50-mg dose level. Variability (CV %) for apparent clearance and volume of distribution were large and not reduced with weight-normalization.
Table 8 presents the results of the dose proportionality assessment for the AUC0-24 and Cmax over the tested dose range.

[5] = Solubility in different aqueous media (24 hour at room temperature); assay type: physicochemical
[6] = single oral dose 150 mg, fasted
[7] = 50 mg daily, Day 14, geometric mean
[8] = 150 mg daily, Day 14, geometric mean
[9] = 200 mg daily, Day 14, geometric mean

SMILES: CCC(CC)c1cc(C)nc2c(-c3sc(N4CCOCC4)nc3Cl)c(C)nn12 [Compound 1, 3-(4-Chloro-2-(morpholin-4-yl)thiazol-5-yl)-7-(1-ethylpropyl)-2,5-dimethylpyrazolo(1,5-a)pyrimidine]
- subjects with more than 25% reduction in Androstenedione (Androstenedione): 60%
- subjects within normal reference range (Androstenedione) after treatment (Androstenedione): 50%
- subjects with reduction in Androstenedione (Androstenedione; at various doses): 100%
- increase of AUC0-∞ for every doubling of dose, relative to dose proportionality ([1]; 50 to 800 mg, fed state): 1.74 times
- mean AUC0-∞, fed state relative to fasted state ([1]; 150-mg dose, fed vs fasted): approximately 3 fold
- mean Cmax, fed state relative to fasted state ([1]; 150-mg dose, fed vs fasted): ~11 fold
- half-life ([1]; human, plasma, single PO dose, fed and fasted state, overall range, read-out: half-life (t1/2), range): 11 to 101 h
- Tmax ([1]; human, plasma, single oral dose 150 mg, fasted state, range, read-out: Tmax, range): 6 to 12 h
- Tmax ([1]; single oral dose 2 mg, fed, median): 6.00 h
- Cmax ([1]; single oral dose 2 mg, fed, plasma): 0.867 ng/mL
- Tmax ([1]; single oral dose 10 mg, fed, median): 4.00 h
- Cmax ([1]; single oral dose 10 mg, fed, plasma): 3.01 ng/mL
- AUC0-tlast ([1]; single oral dose 50 mg, fed): 152 ng·h/mL
- AUC0-∞ ([1]; single oral dose 50 mg, fed): 165 ng·h/mL
- CL/F ([1]; single oral dose 50 mg, fed): 302 L/h
- t1/2 ([1]; single oral dose 50 mg, fed): 31 h
- Tmax ([1]; single oral dose 50 mg, fed, median): 4.00 h
- Cmax ([1]; single oral dose 50 mg, fed, plasma): 19.5 ng/mL
- AUC0-tlast [1, 6]: 288 ng·h/mL
- AUC0-∞ [1, 6]: 331 ng·h/mL
- CL/F [1, 6]: 454 L/h
- t1/2 [1, 6]: 38.4 h
- Tmax ([1]; single oral dose 150 mg, fasted, median): 10.05 h
- Cmax ([1]; single oral dose 150 mg, fasted, plasma): 8.22 ng/mL
- AUC0-tlast ([1]; single oral dose 150 mg, fed): 891 ng·h/mL
- AUC0-∞ ([1]; single oral dose 150 mg, fed): 956 ng·h/mL
- CL/F ([1]; single oral dose 150 mg, fed): 157 L/h
- t1/2 ([1]; single oral dose 150 mg, fed): 29.2 h
- Tmax ([1]; single oral dose 150 mg, fed, median): 4.00 h
- Cmax ([1]; single oral dose 150 mg, fed, plasma): 93.4 ng/mL
- AUC0-tlast ([1]; single oral dose 400 mg, fed): 2300 ng·h/mL
- AUC0-∞ ([1]; single oral dose 400 mg, fed): 2580 ng·h/mL
- CL/F ([1]; single oral dose 400 mg, fed): 155 L/h
- t1/2 ([1]; single oral dose 400 mg, fed): 44.2 h
- Tmax ([1]; single oral dose 400 mg, fed, median): 4.00 h
- Cmax ([1]; single oral dose 400 mg, fed, plasma): 207 ng/mL
- AUC0-tlast ([1]; single oral dose 800 mg, fed): 4390 ng·h/mL
- AUC0-∞ ([1]; single oral dose 800 mg, fed): 4850 ng·h/mL
- CL/F ([1]; single oral dose 800 mg, fed): 165 L/h
- t1/2 ([1]; single oral dose 800 mg, fed): 41.9 h
- Tmax ([1]; single oral dose 800 mg, fed, median): 6.00 h
- Cmax ([1]; single oral dose 800 mg, fed, plasma): 382 ng/mL
- tolerability ([2]; Study 1, single oral doses up to 800 mg): well-tolerated
- tolerability ([2]; Study 2, multiple doses up to 200 mg): generally well tolerated
- subjects in the normal range (ACTH) after treatment (ACTH): 40%
- subjects with more than 25% reduction in ACTH (ACTH): 70%
- subjects with reduction in ACTH (ACTH): 80%
- tolerability [3]: generally well-tolerated
- subjects with more than 25% reduction in 17-OHP (17-OHP): 50%
- subjects with reduction in 17-OHP (17-OHP): 80%
- subjects within the guideline range (1200 ng/dL) of 17-OHP after treatment (17-OHP): 50%
- Cmax [4, 7]: 50.3 ng/mL
- AUC0-24 h [4, 7]: 273 ng·h/mL
- AUC0-∞ [4, 7]: 980 ng·h/mL
- CLaa/F [4, 7]: 183 L/h
- Cavg [4, 7]: 11.4 ng/mL
- Effective t1/2 [4, 7]: 37.7 h
- Tmax ([4]; 50 mg daily, Day 14): 5.00 h
- WT-norm Claa/F [4, 7]: 48 mL/min/kg
- RA (accumulation ratio, Day 14 AUC0-24/Day 1 AUC0-24) ([4]; 50 mg daily, geometric mean): 2.80
- Cmax ([4]; 50 mg, Day 1, geometric mean): 22.7 ng/mL
- AUC0-24 h ([4]; 50 mg, Day 1, geometric mean): 97.6 ng·h/mL
- Tmax ([4]; 50 mg, Day 1): 4.52 h
- Cmax [4, 8]: 222 ng/mL
- AUC0-24 h [4, 8]: 1480 ng·h/mL
- AUC0-∞ [4, 8]: 4680 ng·h/mL
- CLaa/F [4, 8]: 101 L/h
- Cavg [4, 8]: 61.7 ng/mL
- Effective t1/2 [4, 8]: 32.7 h
- Tmax ([4]; 150 mg daily, Day 14): 5.00 h
- WT-norm Claa/F [4, 8]: 23.7 mL/min/kg
- RA (accumulation ratio, Day 14 AUC0-24/Day 1 AUC0-24) ([4]; 150 mg daily, geometric mean): 2.51
- Cmax ([4]; 150 mg, Day 1, geometric mean): 127 ng/mL
- AUC0-24 h ([4]; 150 mg, Day 1, geometric mean): 590 ng·h/mL
- Tmax ([4]; 150 mg, Day 1): 5.00 h
- Cmax [4, 9]: 314 ng/mL
- AUC0-24 h [4, 9]: 2040 ng·h/mL
- AUC0-∞ [4, 9]: 5660 ng·h/mL
- CLaa/F [4, 9]: 98 L/h
- Cavg [4, 9]: 85.0 ng/mL
- Effective t1/2 [4, 9]: 52.0 h
- Tmax ([4]; 200 mg daily, Day 14): 5.00 h
- WT-norm Claa/F [4, 9]: 25 mL/min/kg
- RA (accumulation ratio, Day 14 AUC0-24/Day 1 AUC0-24) ([4]; 200 mg daily, geometric mean): 3.65
- Cmax ([4]; 200 mg, Day 1, geometric mean): 143 ng/mL
- AUC0-24 h ([4]; 200 mg, Day 1, geometric mean): 559 ng·h/mL
- Tmax ([4]; 200 mg, Day 1): 5.00 h
- Vd/F at 14 days ([4]; human, plasma, oral, 50 mg daily, Day 14, geometric mean, read-out: Vz/F): 33500 L
- Solubility Description ([5]; 0.001N HCl, equilibrium pH 3.36): Insoluble
- Solubility Description ([5]; 0.01N HCl, equilibrium pH 2.06): Insoluble
- Solubility Description ([5]; 0.1N HCl, equilibrium pH 1.06): insoluble
- Solubility Description ([5]; 0.1N NaOH, equilibrium pH 11.65): Insoluble
- Solubility Description ([5]; FaSSIF, equilibrium pH 5.16): insoluble
- Solubility Description ([5]; FaSSIF, equilibrium pH 6.73): Insoluble
- Solubility Description ([5]; SGF, equilibrium pH 2.25): Insoluble
- Solubility Description ([5]; Water, equilibrium pH 7.78): insoluble
- Solubility Description ([5]; pH 4.5 Acetate (USP), equilibrium pH 4.65): Insoluble
- Solubility Description ([5]; pH 6.0 Phosphate (USP), equilibrium pH 6.08): Insoluble
- Solubility Description ([5]; pH 7.5 Phosphate (USP), equilibrium pH 7.57): Insoluble
- Solubility ([5]; pH 7.5 Phosphate (USP), equilibrium pH 7.57, n = 2, 24 hour, room temperature): 0.6 µg/mL (≈ 1.43 µM)
- solubility at 24 h ([5]; water, thermodynamic from solid): < 2 µg/mL
